Read-outs that look alike come from different tables or passages of the source. Blank lines part the entries; values can stand above or below the compound they belong to.
Legend:
SV2A [1] = molecular target: SV2A (Rattus norvegicus (Rat), UniProt Q02563)
Description: One Sprague Dawley rat was euthanized with carbon dioxide inhalation. The brain was harvested, rapidly frozen on dry ice and then stored at −80° C. The whole brain homogenates were obtained following published procedures. The final homogenate was suspended in 20 mM Tris-HCl buffer (pH 7.4) containing 250 mM of sucrose at a wet tissue concentration of 100 mg/mL and stored at −80° C. until use.
For competition binding experiments, 0.5 mg of the rat brain homogenates in 800 μL of binding buffer (2 mM MgCl2 in 50 mM Tris*HCl, pH=7.4) were incubated on a thermoshaker at 37° C. for 30 min with 100 μL (R)-^11C-3 or (R)-^18F-11 and 100 μL of the compound over a range of concentrations (from 0.1 to 100 nM). Nonspecific binding was defined as the residual binding observed in the presence of 1 mM levetiracetam (100 μL). At completion of the incubation period, the membrane-bound radioligand was recovered using rapid filtration through GF/B glass fiber filters (13 mm GD/X, Whatman Inc.) which were pre-soaked for at least 30 min in 0.5% polyethyleneimine (PEI). The membranes were washed twice with 1 mL of ice-cooled binding buffer. The binding mixtures, filters and filtrates were counted using cross-calibrated gamma counters (1480 & 2480 WIZARD; Perkin-Elmer). Values of IC50 were calculated using the [sequence] PRISM™ software and converted to inhibition constants (Ki) by the Cheng-Prusoff equation.

SV2A [2] = molecular target: SV2A (Macaca mulatta, UniProt H9EQH8); experiment: PET imaging studies in rhesus monkeys; conditions: for blocking of radiotracer specific binding to SV2A: levetiracetam 30 mg/kg i.v. or UCB-J 150 μg/kg i.v. before radiotracer injection; for Binding potential (BPND): from VT, centrum semiovale as reference region; for Displacement of radiotracer binding by levetiracetam: levetiracetam 30 mg/kg i.v. infused 60 or 90 min post injection of the radiotracer; for time to SUV peak in gray matter regions: rhesus monkey, in vivo, iv
Sequence of SV2A (Macaca mulatta, UniProt H9EQH8) (H9EQH8 1-742): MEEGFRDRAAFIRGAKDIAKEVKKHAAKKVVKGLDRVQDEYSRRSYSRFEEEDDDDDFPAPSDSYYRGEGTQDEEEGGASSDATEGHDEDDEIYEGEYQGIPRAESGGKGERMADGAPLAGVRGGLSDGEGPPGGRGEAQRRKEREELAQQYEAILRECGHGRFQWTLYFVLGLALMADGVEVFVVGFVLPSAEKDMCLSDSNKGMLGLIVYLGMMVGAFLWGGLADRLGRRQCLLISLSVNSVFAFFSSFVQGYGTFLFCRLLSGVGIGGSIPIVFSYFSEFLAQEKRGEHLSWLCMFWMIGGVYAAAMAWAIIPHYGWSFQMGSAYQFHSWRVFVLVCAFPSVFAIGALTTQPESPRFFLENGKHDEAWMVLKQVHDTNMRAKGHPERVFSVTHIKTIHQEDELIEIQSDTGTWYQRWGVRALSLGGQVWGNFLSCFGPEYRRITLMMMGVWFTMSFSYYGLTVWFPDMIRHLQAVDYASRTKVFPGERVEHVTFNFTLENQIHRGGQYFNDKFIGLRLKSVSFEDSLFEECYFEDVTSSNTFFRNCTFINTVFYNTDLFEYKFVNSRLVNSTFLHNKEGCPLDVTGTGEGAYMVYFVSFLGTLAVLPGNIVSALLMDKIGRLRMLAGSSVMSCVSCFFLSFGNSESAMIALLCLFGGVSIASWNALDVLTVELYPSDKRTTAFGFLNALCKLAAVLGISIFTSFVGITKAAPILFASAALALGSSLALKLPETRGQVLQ
Description: Experiments were performed in rhesus monkeys (Macaca mulatta). Rhesus monkeys were sedated using intramuscular (i.m.) injection of ketamine and glycopyrrolate approximately 2 hours before the PET scan and anesthesia was maintained with isoflurane (1.5%-2.5%) for the duration of the experiments. Baseline PET scans were obtained after intravenous (i.v.) injection of ^11C-3, ^18F-3, ^18F-4, ^18F-5, ^18F-10, ^18F-11, or ^18F-12.
Arterial blood samples were collected during the PET scans to calculate the plasma input function and to determine the unmetabolized parent fraction using the automatic column-switching HPLC system. Plasma free fraction (fp) was measured in triplicate using the ultrafiltration method.
PET scans of the brain were acquired using the FOCUS 220 PET scanner (Siemens Preclinical Solutions) with a reconstructed image resolution of approximately 1.5 mm. After a transmission scan, the radioligand was injected i.v. as a 3 min slow bolus by an infusion pump (PHD 22/2000; Harvard Apparatus). List-mode data were acquired for 120-180 min and binned into sinograms with an applicable number of frames. Scan data were reconstructed with a Fourier rebinning/filtered backprojection algorithm with corrections for attenuation, scanner normalization, radiation scatter, and randoms. Regions of interest were manually delineated on a single representative anatomic rhesus monkey MR image registered to a template image. The regions used in this study were amygdala, brain stem, caudate, centrum semiovale, cerebellum, cingulate cortex, frontal cortex, globus pallidus, insular cortex, nucleus accumbens, occipital cortex, pons, putamen, temporal cortex, and thalamus. Registration parameters were obtained to apply the regions of interest to individual PET scans, and regional time-activity curves were generated. Regional time-activity curves of the brain were analyzed with the 1-tissue-(1T) compartment model. Fit quality was compared with the 2-tissue model and the multilinear analysis method to calculate VT.
Typical injected radioactivity amount was 0.5-5 mCi per injection, with typical injected mass amount of 1-10 μg.
Specific binding to SV2A was further examined for ^11C-3, ^18F-3, and ^18F-11 in blocking studies, where levetiracetam or UCB-J ((R)-3) was i.v. infused before injection of the radiotracers.

[3] = Plasma free fraction (fp) by ultrafiltration method; assay type: in vitro ADME, rhesus monkeys (Macaca mulatta); conditions: plasma (from arterial blood samples), rhesus monkey plasma
[4] = converted from IC50 by the Cheng-Prusoff equation
[5] = rat brain homogenates, radioligand (R)-11C-3 or (R)-18F-11, 37° C., 30 min
[6] = IC50, rat brain homogenates, radioligand (R)-11C-3 or (R)-18F-11, 37° C., 30 min
[7] = Ki, converted from IC50 by the Cheng-Prusoff equation

Sequence of SV2A (Rattus norvegicus (Rat), UniProt Q02563) (Q02563 whole entry, the tested form may be a part): as the sequence (H9EQH8 1-742) above, with D53E, S62A, S64G, T71A, E144D, A154T, G440S, S482A, M634L counted along it

Ki (SV2A [1]; [4]): 0.00443 µM
IC50 (SV2A [1]; [5]): 0.0268 µM
Structure (SMILES): O=C1C[C@H](c2cccc(F)c2)CN1Cc1ccncc1 (single isomer, unassigned) [(R)-12, 4-(3-Fluorophenyl)-1-(pyridin-4-ylmethyl)pyrrolidin-2-one]

IC50 (SV2A [1]): 0.0282 µM
Ki (SV2A [1]): 0.00466 µM
Structure (SMILES): O=C1CC(c2cccc(F)c2)CN1Cc1ccncc1 (single isomer, unassigned) [(S)-12, 4-(3-Fluorophenyl)-1-(pyridin-4-ylmethyl)pyrrolidin-2-one]

IC50 (SV2A [1]): 0.0126 µM
Ki (SV2A [1]): 0.00208 µM
Structure (SMILES): Cc1cnccc1CN1CC(c2ccc(F)c(F)c2)CC1=O (single isomer, unassigned) [(R)-4, 4-(3,4-difluorophenyl)-1-((3-methylpyridin-4-yl)methyl)pyrrolidin-2-one]

Binding potential (BPND) (SV2A [2]; Amygdala): 0.04
Binding potential (BPND) (SV2A [2]; Brainstem): −0.06
Binding potential (BPND) (SV2A [2]; Caudate nucleus): 0.75
Binding potential (BPND) (SV2A [2]; Cerebellum): 0.25
Binding potential (BPND) (SV2A [2]; Cingulate cortex): 1.45
Binding potential (BPND) (SV2A [2]; Frontal cortex): 1.28
Binding potential (BPND) (SV2A [2]; Globus pallidus): 0.29
Binding potential (BPND) (SV2A [2]; Hippocampus): 0.44
Binding potential (BPND) (SV2A [2]; Insular cortex): 1.09
Binding potential (BPND) (SV2A [2]; Nucleus accumbens): 1.18
Binding potential (BPND) (SV2A [2]; Occipital cortex): 0.90
Binding potential (BPND) (SV2A [2]; Pons): −0.09
Binding potential (BPND) (SV2A [2]; Putamen): 0.86
Binding potential (BPND) (SV2A [2]; Temporal cortex): 0.95
Binding potential (BPND) (SV2A [2]; Thalamus): 0.42
time to SUV peak in gray matter regions (SV2A [2]): ≤ 10 min
fraction unbound [3]: 0.61
Structure (SMILES): O=C1CC(c2cccc(F)c2)CN1Cc1ccncc1 (centres unmarked) [^18F-12, 4-(3-Fluorophenyl)-1-(pyridin-4-ylmethyl)pyrrolidin-2-one]
Displacement of radiotracer binding by levetiracetam (SV2A [2]): reduced the binding of these tracers to a significant extent

Ki (SV2A [1]; [4]): 0.00943 µM
IC50 (SV2A [1]; [5]): 0.057 µM
Structure (SMILES): Cc1cnccc1CN1C[C@H](c2ccc(F)c(F)c2)CC1=O (single isomer, unassigned) [(S)-4, 4-(3,4-difluorophenyl)-1-((3-methylpyridin-4-yl)methyl)pyrrolidin-2-one]

Ki (SV2A [1]; [4]): 0.115 µM
IC50 (SV2A [1]; [5]): 0.698 µM
Structure (SMILES): Cc1cnccc1CN1C[C@H](c2cc(F)cc(F)c2)CC1=O (single isomer, unassigned) [(S)-5, 4-(3,5-Difluorophenyl)-1-((3-methylpyridin-4-yl)methyl)pyrrolidin-2-one]

Binding potential (BPND) (SV2A [2]; Amygdala): 0.66
Binding potential (BPND) (SV2A [2]; Brainstem): 0.75
Binding potential (BPND) (SV2A [2]; Caudate nucleus): 1.72
Binding potential (BPND) (SV2A [2]; Cerebellum): 0.55
Binding potential (BPND) (SV2A [2]; Cingulate cortex): 2.60
Binding potential (BPND) (SV2A [2]; Frontal cortex): 2.51
Binding potential (BPND) (SV2A [2]; Globus pallidus): 0.95
Binding potential (BPND) (SV2A [2]; Hippocampus): 1.35
Binding potential (BPND) (SV2A [2]; Insular cortex): 2.41
Binding potential (BPND) (SV2A [2]; Nucleus accumbens): 2.47
Binding potential (BPND) (SV2A [2]; Occipital cortex): 2.30
Binding potential (BPND) (SV2A [2]; Pons): 0.73
Binding potential (BPND) (SV2A [2]; Putamen): 1.86
Binding potential (BPND) (SV2A [2]; Temporal cortex): 2.21
Binding potential (BPND) (SV2A [2]; Thalamus): 1.65
time to SUV peak in gray matter regions (SV2A [2]): ≤ 10 min
fraction unbound [3]: 0.41
Structure (SMILES): Cc1cnccc1CN1CC(c2ccc(F)c(F)c2)CC1=O (centres unmarked) [^18F-4, 4-(3,4-difluorophenyl)-1-((3-methylpyridin-4-yl)methyl)pyrrolidin-2-one]
Displacement of radiotracer binding by levetiracetam (SV2A [2]): reduced the binding of these tracers to a significant extent

Ki (SV2A [1]; [4]): 0.00058 µM
IC50 (SV2A [1]; [5]): 0.00352 µM
Structure (SMILES): Cc1cnccc1CN1C[C@@H](c2cc(F)cc(F)c2)CC1=O (single isomer, unassigned) [Compound (R)-5, 4-(3,5-Difluorophenyl)-1-((3-methylpyridin-4-yl)methyl)pyrrolidin-2-one]

The remaining lines, values behind:

Structure (SMILES): Cc1cnccc1CN1CC(c2cc(F)c(F)c(F)c2)CC1=O (single isomer, unassigned) [(R)-3, 1-((3-methylpyridin-4-yl)methyl)-4-(3,4,5-trifluorophenyl) pyrrolidin-2-one]
IC50 (SV2A [1]; [6]): 0.00162 µM
Ki (SV2A [1]; [7]): 0.00027 µM
blocking of radiotracer specific binding to SV2A (SV2A [2]): blocking of specific binding

Structure (SMILES): Cc1cnccc1CN1CC(c2cccc(F)c2)CC1=O (single isomer, unassigned) [(R)-11, 4-(3-Fluorophenyl)-1-((3-methylpyridin-4-yl)methyl)pyrrolidin-2-one]
IC50 (SV2A [1]; [6]): 0.0269 µM
Ki (SV2A [1]; [7]): 0.00444 µM

Structure (SMILES): CC[C@@H](C(N)=O)N1CCCC1=O [levetiracetam, reference compound]
blocking of radiotracer specific binding to SV2A (SV2A [2]): blocking of specific binding

Structure (SMILES): Cc1cnccc1CN1CC(c2cccc(F)c2)CC1=O (single isomer, unassigned) [(S)-11, 4-(3-Fluorophenyl)-1-((3-methylpyridin-4-yl)methyl)pyrrolidin-2-one]
IC50 (SV2A [1]; [6]): 0.109 µM
Ki (SV2A [1]; [7]): 0.0182 µM

Structure (SMILES): Cc1cnccc1CN1CC(c2cc(F)c(F)c(F)c2)CC1=O (centres unmarked) [^18F-3, 1-((3-methylpyridin-4-yl)methyl)-4-(3,4,5-trifluorophenyl) pyrrolidin-2-one]
Binding potential (BPND) (SV2A [2]; Amygdala): 1.65 ± 1.04
Binding potential (BPND) (SV2A [2]; Brainstem): 0.84 ± 0.28
Binding potential (BPND) (SV2A [2]; Caudate nucleus): 2.54 ± 0.60
Binding potential (BPND) (SV2A [2]; Cerebellum): 1.88 ± 0.42
Binding potential (BPND) (SV2A [2]; Cingulate cortex): 4.04 ± 0.38
Binding potential (BPND) (SV2A [2]; Frontal cortex): 3.90 ± 0.54
Binding potential (BPND) (SV2A [2]; Globus pallidus): 1.08 ± 0.59
Binding potential (BPND) (SV2A [2]; Hippocampus): 1.99 ± 0.75
Binding potential (BPND) (SV2A [2]; Insular cortex): 3.51 ± 0.56
Binding potential (BPND) (SV2A [2]; Nucleus accumbens): 3.85 ± 0.57
Binding potential (BPND) (SV2A [2]; Occipital cortex): 3.35 ± 0.27
Binding potential (BPND) (SV2A [2]; Pons): 0.80 ± 0.26
Binding potential (BPND) (SV2A [2]; Putamen): 2.62 ± 0.46
Binding potential (BPND) (SV2A [2]; Temporal cortex): 3.14 ± 0.41
Binding potential (BPND) (SV2A [2]; Thalamus): 2.53 ± 1.18
Displacement of radiotracer binding by levetiracetam (SV2A [2]): reduced the binding of these tracers to a significant extent
Uptake of radiotracer in blocking studies (SV2A [2]; levetiracetam (30 mg/kg) or UCB-J (150 μg/kg) i.v. 10 min before radiotracer injection): reduced to background levels
time to SUV peak in gray matter regions (SV2A [2]): slower
fraction unbound [3]: 0.42 ± 0.06

Structure (SMILES): Cc1cnccc1CN1C[C@H](c2cc(F)c(F)c(F)c2)CC1=O (single isomer, unassigned) [(S)-3, 1-((3-methylpyridin-4-yl)methyl)-4-(3,4,5-trifluorophenyl) pyrrolidin-2-one]
Ki (SV2A [1]; [4]): 0.0125 µM
IC50 (SV2A [1]; [5]): 0.0756 µM

From US11518754B2, “Radiolabeled pharmaceuticals and methods of making and using same” (YALE UNIVERSITY, priority 2017, dated 2022)
